Seven compounds from ChEMBL document CHEMBL1201862, “PubChem BioAssay data set” (2004) can be followed below.

Assay [1] is described as follows: cells. As to conditions: HEK293.
A short description of assay [2]: Shn3 3'UTR reporter signal decrease – cell-based, Clone20 osteoblasts, firefly luciferase, cherry-pick, set 2, Schnurri-3 inhibitor project, dose response (AID 720490).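 Note: actives lower the luminescence signal as inhibitors.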 It counts as functional.
The nature of assay [3]: EF1alpha-driven Renilla reporter with control 3'UTR suppression – Clone20-Shn3RL cells, dual-Glo, cherry-pick, set 2, counter-screen for Shn3 3'UTR targeting project, dose response (AID 720724). Format: functional, cell-based. As to conditions: Dual-Go Shn3RL. (The purpose of a counterscreen is to sort out artefacts and off-target activity.)
Assay [4] is described as follows: loss of viability in HepG2 cells – cell-based, CellTiter-Glo, cherry-picked, cytotoxicity control for Shn3 inhibitor project, dose response (AID 624134). It counts as functional. For orientation: In ATP-based viability assays light output follows the ATP content of the culture.
The nature of assay [5]: reduction of Shn3 3'UTR-driven luciferase in osteoblasts – cell-based, Clone20 osteoblasts, firefly luciferase, cherry-picked, dose response (AID 624132).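 Note: firefly luciferase luminescence from reporter carrying the Shn3 3'UTR in osteoblasts.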 Format: functional.
A further assay concerns INS1. Briefly: INS-1E survival protection against cytokine death – cell-based, luminescence, retest, dose response (AID 449756).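 Note: cell death triggered by IL-1 beta plus TNF-alpha plus IFN-gamma mixture; protective hits raise ATP signal compared with cytokine alone wells.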 Format: functional. As to conditions: Rattus norvegicus, INS1.
Assay [6] is described as follows: non-specific 3'UTR reporter inhibition in Clone20-Shn3RL – cell-based, Renilla luciferase, cherry-picked, counter-screen for Shn3 inhibitor project, dose response (AID 624133). Format: functional.
The target of assay [7] is T1, Polyadenylate-binding protein 1 (Homo sapiens, UniProt P11940). Nature of the assay: MLLE binding blockers, Cy5 peptide tracer – biochemical, fluorescence polarization, Cy5-PAM2 peptide, secondary, miRNA deadenylation inhibitor project, dose response (AID 602260). Format: functional. As to conditions: read-out: IC50_Mean. In general terms: Polarisation of emitted light reports the rotation of a fluorescent probe.
T1 sequence (P11940 whole entry): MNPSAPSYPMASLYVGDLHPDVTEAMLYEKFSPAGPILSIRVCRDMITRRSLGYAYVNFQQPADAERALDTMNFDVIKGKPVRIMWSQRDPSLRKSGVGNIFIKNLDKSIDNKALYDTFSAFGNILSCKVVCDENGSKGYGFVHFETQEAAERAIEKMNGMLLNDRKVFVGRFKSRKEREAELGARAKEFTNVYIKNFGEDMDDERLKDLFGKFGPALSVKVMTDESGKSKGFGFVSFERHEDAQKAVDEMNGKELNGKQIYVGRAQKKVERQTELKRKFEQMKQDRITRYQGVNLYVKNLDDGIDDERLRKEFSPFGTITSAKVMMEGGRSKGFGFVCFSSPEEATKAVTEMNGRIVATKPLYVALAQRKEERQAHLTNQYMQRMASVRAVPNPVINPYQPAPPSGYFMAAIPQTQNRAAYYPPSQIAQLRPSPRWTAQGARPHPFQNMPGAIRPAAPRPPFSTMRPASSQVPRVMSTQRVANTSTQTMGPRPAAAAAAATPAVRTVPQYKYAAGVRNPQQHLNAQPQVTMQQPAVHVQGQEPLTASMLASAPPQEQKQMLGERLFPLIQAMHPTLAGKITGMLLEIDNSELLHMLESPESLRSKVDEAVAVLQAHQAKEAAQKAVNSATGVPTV

In assay [8] the target is T2, Sentrin-specific protease 8 (Homo sapiens, UniProt Q96LD8).
T2 sequence (Q96LD8 whole entry): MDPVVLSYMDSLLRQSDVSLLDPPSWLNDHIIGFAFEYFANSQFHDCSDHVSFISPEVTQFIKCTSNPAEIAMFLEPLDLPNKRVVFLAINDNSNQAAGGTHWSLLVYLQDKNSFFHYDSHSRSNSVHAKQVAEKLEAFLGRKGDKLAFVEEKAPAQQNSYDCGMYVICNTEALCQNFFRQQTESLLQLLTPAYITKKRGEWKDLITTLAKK
It counts as functional.

A further assay concerns the target T3, Caspase-3 (Homo sapiens, UniProt P42574).
T3 sequence (P42574 whole entry): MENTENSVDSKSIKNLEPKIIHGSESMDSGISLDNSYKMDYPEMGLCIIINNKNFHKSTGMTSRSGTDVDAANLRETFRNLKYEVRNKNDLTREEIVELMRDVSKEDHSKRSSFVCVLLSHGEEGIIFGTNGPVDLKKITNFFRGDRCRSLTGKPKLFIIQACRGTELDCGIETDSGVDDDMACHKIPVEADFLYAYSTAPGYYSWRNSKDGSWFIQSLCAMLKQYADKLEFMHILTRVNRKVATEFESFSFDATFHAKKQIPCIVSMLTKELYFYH
Nature of the assay: Dose-response confirmation of uHTS inhibitor hits of Sentrin-Specific Protease 8 in a Caspase-3 Fluorescence assay. It counts as functional.

Assay [9] concerns the target T1, Polyadenylate-binding protein 1. Nature of the assay: MLLE domain peptide-binding blockers, IC50 – biochemical, fluorescence polarization, FITC-PAM2 peptide, dose response (AID 602259). As to conditions: read-out: IC50_Mean. Format: functional.
Assay [10] concerns the target T2, Sentrin-specific protease 8. Format: functional. The source holds these as a separate data set.
Assay [11] concerns the target Tyrosyl-DNA phosphodiesterase 2 (Homo sapiens, UniProt O95551). Briefly: potency against TDP2 phosphodiesterase activity – biochemical, epi absorbance, IC50, dose response (AID 743297).
Assay [12] in a line: Luminescence Cell-Based Dose Response HTS to Identify Activators of Luciferase Translation or Activity in H4 […] Cells. [Related pubchem assays: 1829 (Project Summary), 1814 (Primary HTS)]. Format: functional.
Assay [13] can be described thus: viability loss in HepG2 liver cells – cell-based, ATP luminescence, cherry-pick, set 6, cytotoxicity control, dose response (AID 1053125). It counts as functional.
Assay [14] can be described thus: Luminescence Cell-Based Dose Confirmation HTS to Identify Activators of 5'UTR Stem-Loop Driven Alpha-Synuclein mRNA Translation in H4 Neuroglioblastoma Cells. [Related pubchem assays: 1829 (Project Summary), 1814 (Primary HTS)]. It counts as functional.
The subject of a further assay is H4. Nature of the assay: Luminescence Cell-Based Dose Response HTS to Identify Activators of 5'UTR Stem-Loop Driven Prion Protein mRNA Translation in H4 Neuroglioblastoma Cells. [Related pubchem assays: 1829 (Project Summary), 1814 (Primary HTS)]. Format: functional. As to conditions: Homo sapiens.
For assay [15], the target named is T4, Oxysterols receptor LXR-beta (Homo sapiens, UniProt P55055).
T4 sequence (P55055 whole entry): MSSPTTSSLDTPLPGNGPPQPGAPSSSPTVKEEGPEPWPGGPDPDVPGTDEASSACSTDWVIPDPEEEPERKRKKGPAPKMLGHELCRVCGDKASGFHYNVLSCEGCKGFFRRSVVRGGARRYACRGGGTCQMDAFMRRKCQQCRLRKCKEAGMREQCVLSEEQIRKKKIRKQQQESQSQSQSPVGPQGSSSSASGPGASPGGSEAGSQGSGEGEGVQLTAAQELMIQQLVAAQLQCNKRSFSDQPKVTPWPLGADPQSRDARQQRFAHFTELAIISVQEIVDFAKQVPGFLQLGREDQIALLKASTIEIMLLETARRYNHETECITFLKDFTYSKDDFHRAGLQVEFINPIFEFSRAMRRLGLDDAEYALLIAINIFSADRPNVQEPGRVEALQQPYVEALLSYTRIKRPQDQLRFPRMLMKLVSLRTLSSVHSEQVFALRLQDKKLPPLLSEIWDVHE
Format: functional, cell-based.

Assay [16] has as its target 1-phosphatidylinositol 4,5-bisphosphate phosphodiesterase beta-3 (Homo sapiens, UniProt Q01970). Briefly: Fluorescence-based biochemical high throughput dose response assay to identify inhibitors of phospholipase C isozymes (PLC-B3).
The target of assay [17] is 1-phosphatidylinositol 4,5-bisphosphate phosphodiesterase gamma-1 (Homo sapiens, UniProt P19174). Nature of the assay: Counterscreen for inhibitors of phospholipase C isozymes (PLC-B3): Fluorescence-based biochemical high throughput dose response assay to identify inhibitors of phospholipase C isozymes (PLC-gamma1).
Sequence of 1-phosphatidylinositol 4,5-bisphosphate phosphodiesterase gamma-1 (P19174 whole entry): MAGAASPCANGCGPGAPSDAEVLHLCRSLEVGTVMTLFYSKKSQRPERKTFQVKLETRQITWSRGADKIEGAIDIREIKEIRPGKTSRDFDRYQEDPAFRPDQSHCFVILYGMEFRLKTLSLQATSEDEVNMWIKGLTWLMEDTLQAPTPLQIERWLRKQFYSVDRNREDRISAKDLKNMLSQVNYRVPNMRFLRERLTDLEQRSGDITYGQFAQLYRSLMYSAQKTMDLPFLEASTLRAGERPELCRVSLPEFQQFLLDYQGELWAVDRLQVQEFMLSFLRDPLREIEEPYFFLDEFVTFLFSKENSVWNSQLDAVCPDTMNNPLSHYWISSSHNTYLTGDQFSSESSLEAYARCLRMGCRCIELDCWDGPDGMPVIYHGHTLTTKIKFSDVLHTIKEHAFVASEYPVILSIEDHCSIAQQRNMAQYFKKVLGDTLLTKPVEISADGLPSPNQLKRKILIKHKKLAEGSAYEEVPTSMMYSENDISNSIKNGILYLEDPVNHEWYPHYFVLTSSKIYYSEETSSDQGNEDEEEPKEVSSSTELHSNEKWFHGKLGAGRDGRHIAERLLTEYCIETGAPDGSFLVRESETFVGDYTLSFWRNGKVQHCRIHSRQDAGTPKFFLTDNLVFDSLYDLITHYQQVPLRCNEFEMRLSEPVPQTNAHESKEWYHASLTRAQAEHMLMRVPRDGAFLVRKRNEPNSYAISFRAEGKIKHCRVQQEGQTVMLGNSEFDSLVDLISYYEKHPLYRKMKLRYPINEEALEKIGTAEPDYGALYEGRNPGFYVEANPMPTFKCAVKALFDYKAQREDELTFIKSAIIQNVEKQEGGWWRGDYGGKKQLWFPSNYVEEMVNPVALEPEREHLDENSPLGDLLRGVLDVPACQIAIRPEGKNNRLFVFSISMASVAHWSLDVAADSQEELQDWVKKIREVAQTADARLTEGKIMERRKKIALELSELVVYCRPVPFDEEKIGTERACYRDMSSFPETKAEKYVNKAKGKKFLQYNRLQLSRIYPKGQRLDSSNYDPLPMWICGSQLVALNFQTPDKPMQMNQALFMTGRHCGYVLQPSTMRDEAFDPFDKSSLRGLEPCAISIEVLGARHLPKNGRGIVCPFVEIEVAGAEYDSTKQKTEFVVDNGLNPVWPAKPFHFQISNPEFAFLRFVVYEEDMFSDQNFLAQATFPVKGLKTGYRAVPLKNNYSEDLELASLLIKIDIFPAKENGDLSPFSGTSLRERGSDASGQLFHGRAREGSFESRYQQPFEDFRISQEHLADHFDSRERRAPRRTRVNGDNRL
Assay [18] is described as follows: cells.
Assay [19] is described as follows: viability of uninfected HEp-2 cells – cell-based, HTS, cytotoxicity control for RSV inhibitor project, dose response (AID 2410). Format: functional. As to conditions: human respiratory syncytial virus.
For assay [20], the target named is T4, Oxysterols receptor LXR-beta. Format: functional, cell-based. The source holds these as a separate data set.
In assay [21] the target is Endoplasmic reticulum aminopeptidase 1 (Homo sapiens, UniProt Q9NZ08). Briefly: inhibition of human ERAP1 enzyme activity – biochemical, cherry-pick, set 2, plate reader, dose response (AID 743314).
Sequence of Endoplasmic reticulum aminopeptidase 1 (Q9NZ08 whole entry): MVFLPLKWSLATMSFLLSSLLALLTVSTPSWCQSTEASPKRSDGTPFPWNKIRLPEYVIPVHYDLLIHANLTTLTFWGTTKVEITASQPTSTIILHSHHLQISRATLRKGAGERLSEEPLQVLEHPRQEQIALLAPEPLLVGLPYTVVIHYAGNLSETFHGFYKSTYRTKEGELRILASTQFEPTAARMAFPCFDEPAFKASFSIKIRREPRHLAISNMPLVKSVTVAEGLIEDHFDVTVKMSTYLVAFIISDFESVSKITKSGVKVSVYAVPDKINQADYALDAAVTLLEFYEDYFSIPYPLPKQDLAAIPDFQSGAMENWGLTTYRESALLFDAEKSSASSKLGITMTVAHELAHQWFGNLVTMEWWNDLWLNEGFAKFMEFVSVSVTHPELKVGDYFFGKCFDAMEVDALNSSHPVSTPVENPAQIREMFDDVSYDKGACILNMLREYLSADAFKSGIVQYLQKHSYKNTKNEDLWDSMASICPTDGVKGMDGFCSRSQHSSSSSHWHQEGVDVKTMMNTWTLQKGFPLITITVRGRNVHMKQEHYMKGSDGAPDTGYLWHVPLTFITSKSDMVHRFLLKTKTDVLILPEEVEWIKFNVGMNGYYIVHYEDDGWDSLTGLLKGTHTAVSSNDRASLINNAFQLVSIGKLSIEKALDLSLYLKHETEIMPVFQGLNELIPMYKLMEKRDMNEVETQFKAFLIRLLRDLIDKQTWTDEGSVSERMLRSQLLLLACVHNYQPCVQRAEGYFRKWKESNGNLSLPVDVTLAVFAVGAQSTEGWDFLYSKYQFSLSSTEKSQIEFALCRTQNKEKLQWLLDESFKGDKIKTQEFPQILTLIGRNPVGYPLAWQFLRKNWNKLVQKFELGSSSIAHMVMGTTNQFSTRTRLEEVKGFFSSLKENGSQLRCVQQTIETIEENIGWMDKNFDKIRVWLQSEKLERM
For assay [22], the target named is DNA dC->dU-editing enzyme APOBEC-3A (Homo sapiens, UniProt P31941). Nature of the assay: A3A deaminase inhibition for selectivity – biochemical, dose response (AID 504722). It counts as functional.
Sequence of DNA dC->dU-editing enzyme APOBEC-3A (P31941 whole entry): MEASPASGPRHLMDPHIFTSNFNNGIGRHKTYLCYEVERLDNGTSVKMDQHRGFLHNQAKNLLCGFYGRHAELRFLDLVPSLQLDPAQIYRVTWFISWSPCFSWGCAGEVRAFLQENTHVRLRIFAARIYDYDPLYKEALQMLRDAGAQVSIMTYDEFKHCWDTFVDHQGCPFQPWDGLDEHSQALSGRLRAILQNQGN
In assay [23] the target is DNA dC->dU-editing enzyme APOBEC-3G (Homo sapiens, UniProt Q9HC16). Nature of the assay: Dose Response confirmation of small molecule APOBEC3G DNA Deaminase Inhibitors via a fluorescence-based single-stranded DNA deaminase assay. [Related pubchem assays (depositor defined):AID493012, AID493028]. Format: functional.
Sequence of DNA dC->dU-editing enzyme APOBEC-3G (Q9HC16 whole entry): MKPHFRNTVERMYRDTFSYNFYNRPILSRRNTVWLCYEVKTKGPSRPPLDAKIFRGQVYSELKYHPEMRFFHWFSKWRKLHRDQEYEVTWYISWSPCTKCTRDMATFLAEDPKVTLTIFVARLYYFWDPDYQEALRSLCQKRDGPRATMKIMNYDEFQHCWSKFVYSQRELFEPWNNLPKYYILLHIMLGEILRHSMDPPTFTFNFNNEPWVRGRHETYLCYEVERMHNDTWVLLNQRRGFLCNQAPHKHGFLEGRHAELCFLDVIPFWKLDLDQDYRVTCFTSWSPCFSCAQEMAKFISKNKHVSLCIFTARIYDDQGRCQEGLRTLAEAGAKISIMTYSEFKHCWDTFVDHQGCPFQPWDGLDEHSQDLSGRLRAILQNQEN

Calls of active or inactive are those of the source. A value given as a limit tells only on which side of the number the result lay.

Sequence of 1-phosphatidylinositol 4,5-bisphosphate phosphodiesterase beta-3 (Q01970 whole entry): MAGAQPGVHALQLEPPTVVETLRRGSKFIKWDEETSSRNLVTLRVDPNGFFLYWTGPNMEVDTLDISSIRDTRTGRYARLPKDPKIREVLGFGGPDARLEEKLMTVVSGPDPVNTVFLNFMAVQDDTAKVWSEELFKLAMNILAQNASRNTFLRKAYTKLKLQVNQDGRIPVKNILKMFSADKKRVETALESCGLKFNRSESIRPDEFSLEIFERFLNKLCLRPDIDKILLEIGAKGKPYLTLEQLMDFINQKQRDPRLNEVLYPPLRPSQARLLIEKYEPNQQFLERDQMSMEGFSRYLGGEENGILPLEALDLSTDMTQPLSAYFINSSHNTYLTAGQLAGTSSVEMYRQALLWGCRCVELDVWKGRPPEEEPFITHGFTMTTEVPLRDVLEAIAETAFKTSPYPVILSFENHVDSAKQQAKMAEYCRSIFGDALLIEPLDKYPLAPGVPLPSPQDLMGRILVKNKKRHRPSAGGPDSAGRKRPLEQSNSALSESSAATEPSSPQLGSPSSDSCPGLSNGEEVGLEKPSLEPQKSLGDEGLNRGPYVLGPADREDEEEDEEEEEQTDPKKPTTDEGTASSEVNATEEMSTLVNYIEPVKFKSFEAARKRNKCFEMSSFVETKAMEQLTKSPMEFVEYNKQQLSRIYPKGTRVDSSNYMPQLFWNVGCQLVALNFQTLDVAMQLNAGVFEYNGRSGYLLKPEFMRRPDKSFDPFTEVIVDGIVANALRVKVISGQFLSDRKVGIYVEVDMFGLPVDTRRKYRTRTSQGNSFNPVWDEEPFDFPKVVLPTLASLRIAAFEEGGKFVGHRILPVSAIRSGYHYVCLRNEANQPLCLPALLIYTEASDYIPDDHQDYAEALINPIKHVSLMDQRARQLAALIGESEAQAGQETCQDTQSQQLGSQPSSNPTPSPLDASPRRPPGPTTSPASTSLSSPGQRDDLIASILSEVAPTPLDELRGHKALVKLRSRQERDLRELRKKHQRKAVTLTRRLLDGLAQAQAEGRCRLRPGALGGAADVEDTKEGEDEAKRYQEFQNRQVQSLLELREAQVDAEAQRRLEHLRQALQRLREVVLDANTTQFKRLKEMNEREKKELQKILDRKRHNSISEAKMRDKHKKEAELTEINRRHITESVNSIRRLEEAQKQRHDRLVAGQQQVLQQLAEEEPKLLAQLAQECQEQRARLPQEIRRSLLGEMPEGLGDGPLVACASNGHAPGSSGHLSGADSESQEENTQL
Sequence of Tyrosyl-DNA phosphodiesterase 2 (O95551 whole entry): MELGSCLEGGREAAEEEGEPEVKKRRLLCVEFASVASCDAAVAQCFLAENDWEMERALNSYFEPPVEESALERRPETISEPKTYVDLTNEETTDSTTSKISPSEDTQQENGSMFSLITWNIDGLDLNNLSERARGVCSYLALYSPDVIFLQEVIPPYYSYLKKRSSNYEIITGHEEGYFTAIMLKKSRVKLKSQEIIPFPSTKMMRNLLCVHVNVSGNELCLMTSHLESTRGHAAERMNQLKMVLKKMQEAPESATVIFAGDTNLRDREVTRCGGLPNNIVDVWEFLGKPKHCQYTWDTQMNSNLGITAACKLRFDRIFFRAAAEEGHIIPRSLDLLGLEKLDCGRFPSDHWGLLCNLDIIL

As usually defined, the AC50 is the midpoint of the concentration-response curve, whichever way the signal moves. Take `CC1CCN(C(=O)COc2cccc3c2CCN(Cc2ccccc2)C3=O)CC1`: the AC50 in “cells [1]” is 28.7 µM (active).

Regarding `CC(=O)N1c2ccc(S(=O)(=O)N3CCC(C(=O)N4CCN(c5cccc(C(F)(F)F)c5)CC4)CC3)cc2CC1C` (stereo unspecified), the AC50 was 1.54 µM (active) in assay [2]; 1.47 µM (active) in assay [3]; > 70 µM (inactive) in assay [4]; 1.28 µM (active) in assay [5]; 7.43 µM (active) in the assay on INS1; 4.45 µM (active) in assay [6].

Regarding `COc1ccc2c(c1)Cc1sc(NC(C)=O)nc1-2`, the IC50 was > 66 µM (inactive) in assay [7]; 9.19 µM (active) in assay [8]; 23.9 µM (active) at Caspase-3; > 66 µM (inactive) in assay [9]; 6.35 µM (active) in assay [10]; 67.5 µM (inactive) in assay [11].

What is called EC50 is the concentration that produces a half-maximal response. In the case of `Cc1cc(-c2nc3cccnc3s2)ccc1NS(=O)(=O)c1cccs1`, the EC50 in assay [12] is 30.8 µM (active); in assay [14], 9.73 µM (active); with H4, 0.197 µM (active); in assay [15], > 67.5 µM (inactive). Moreover, in [13], the AC50 was 7.51 µM (active).

In the case of `O=C(C[S+]([O-])c1cccc(C(F)(F)F)c1)Nc1ccc(Cl)cc1Cl` (stereo unspecified), the IC50 in [16] is > 122 µM (inactive); in assay [17], 56.9 µM (inactive).

By CC50 is commonly meant the concentration giving 50% cytotoxicity. Consider `COc1ccccc1Nc1nc(-c2cccs2)cs1`, for which the EC50 (in the assay “cells [18]”; in assay [20]) was > 67.5 µM (inactive) each time. Also, in assay [19], the CC50 was 47.2 µM (active).

`O=C(CSc1cnn[nH]1)Nc1cccc(C(=O)O)c1`: the AC50 in assay [21] was 8 µM (active). Besides, the IC50 in assay [22] is > 100 µM (inactive); in assay [23], 15.3 µM (active).
